Results on one compound are retold here after patent publication US9173876B2, “Preparation and therapeutic applications of (2S,3R)-N-2-((3-pyridinyl)methyl)-1-azabicyclo[2.2.2]oct-3-yl)-3,5-difluorobenzamide” (Targacept, Inc., priority 2009, dated 2015).

The subject of this assay is normal rats. In words: Novel object recognition (NOR) task. It is filed as in vivo, rat. The conditions noted are these: for Duration of Effect, NOR (time after dosing): after 3rd administration; for Minimum Effective Dose (MED), NOR: oral, rats, follow-up study FIG. 2. On the procedure:
Memory was assessed by using the three-trial novel object recognition test. On the first day (exploratory trial), rats were allowed to explore an open arena (44.5×44.5×30.5 cm) for 6 min. On the second day (acquisition trial), rats were allowed to explore the same arena in the presence of two identical objects (both object A) for 3 minutes. On the third day (retention or recall trial), performance was evaluated by allowing the same animal to re-explore the arena for 3 minutes in the presence of two different objects: the familiar object A and a novel object B. An inter-trial interval of 24 hours was imposed between the three NOR trials. Recognition memory was assessed by comparing the time spent exploring a novel (object B) versus a familiar (object A) object during the recall trial. Recognition index was assessed for each animal and expressed as a ratio ((time B/time A+time B)×100).

The structures appear in SMILES notation.

On to `O=C(N[C@@H]1C2CCN(CC2)[C@H]1Cc1cccnc1)c1cc(F)cc(F)c1` [Compound A], for which the “NOR effect after single oral administration (recall only session)” value (0.28 μmol/kg oral on day 3 only) is “pro-cognitive effects”. This compound also yielded a Recognition index (0.28 μmol/kg oral, 0.5 h after dosing, FIG. 3) of 68±4%; a Recognition index (0.28 μmol/kg oral, 2 h after dosing, FIG. 3) of 71±2%; a Recognition index (0.28 μmol/kg oral, 6 h after dosing, FIG. 3) of 62±2%; a Recognition index (0.28 μmol/kg oral, 24 h after acquisition trial, FIG. 1, vehicle 54±1%) of 74±3%; a Recognition index (0.84 μmol/kg oral, 0.5 h after dosing, FIG. 4) of 59±2%; a Recognition index (0.84 μmol/kg oral, 2 h after dosing, FIG. 4) of 63±2%. Further, the Recognition index worked out at 68±3% (0.84 μmol/kg oral, 6 h after dosing, FIG. 4); 68±3% (0.84 μmol/kg oral, 18 h after dosing, FIG. 4); 70±4% (0.84 μmol/kg oral, 24 h after acquisition trial, FIG. 1, vehicle 54±1%). The “Duration of Effect, NOR (time after dosing)” value is on record as “Duration 6 h (@ 0.1 mg/kg)” (0.1 mg/kg (0.28 μmol/kg) oral, FIG. 3, listed as (2S,3R)-N-2-((3-pyridinyl)methyl)-1-azabicyclo[2.2.2]oct-3-yl)-3,5-difluorobenza); “Duration 18 h (@ 0.3 mg/kg)” (0.3 mg/kg (0.84 μmol/kg) oral, FIG. 4, listed as (2S,3R)-N-2-((3-pyridinyl)methyl)-1-azabicyclo[2.2.2]oct-3-yl)-3,5-difluorobenza); not above 18 h (0.3 mg/kg (0.84 μmol/kg) oral, FIG. 4, listed as Formula I). Further, the “Doses with statistically significant effect in NOR” value runs as follows: (NOR vs. dose, FIG. 1) not below 0.1 mg/kg; (minimum effective dose study, FIG. 2) not below 0.03 mg/kg. In addition, the “Minimum Effective Dose (MED), NOR” value was “MED = 0.084 μmol/kg” (listed as (2S,3R)-N-2-((3-pyridinyl)methyl)-1-azabicyclo[2.2.2]oct-3-yl)-3,5-difluorobenza) and 0.084 µmol/kg (listed as (2S,3R)—N-2-((3-pyridinyl)methyl)-1-azabicyclo[2.2.2]oct-3-yl)-3,5-difluorobenza).
